Like-named read-outs stand apart in the source and are kept apart here.
How the values were obtained:
[1] = Particle size and polydispersity index of nanoparticle compositions (Zetasizer Nano ZS); type: physicochemical
Summary of the method: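 Zetasizer Nano ZS; samples in 1×PBS; read-out: particle size plus polydispersity index.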

[2] = Encapsulation efficiency of RNA (QUANT-IT RIBOGREEN RNA assay); type: physicochemical
Summary of the method: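 RiboGreen fluorescence (ex ~480, em ~520 nm) measured after 15 min at 37 °C on samples at ~5 μg/mL in TE, pH 7.5, ± 2% Triton X-100 solution. After blank subtraction, free RNA is given as intact-sample signal divided by disrupted-sample signal.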

[3] = pKa of nanoparticle compositions; type: physicochemical
[4] = Concentration of RNA in nanoparticle composition (ultraviolet-visible spectroscopy); type: physicochemical; conditions: Table 5; hEPO mRNA; 40:20:38.5:1.5 Lipid:DOPE:Chol:PEG-DMG
Protocol: Ultraviolet-visible spectroscopy can be used to determine the concentration of a therapeutic and/or prophylactic agent (e.g., RNA) in nanoparticle compositions. 100 μL of the diluted formulation in 1×PBS is added to 900 μL of a 4:1 (v/v) mixture of methanol and chloroform. After mixing, the absorbance spectrum of the solution is recorded, for example, between 230 nm and 330 nm on a DU 800 spectrophotometer (Beckman Coulter, Beckman Coulter, Inc., Brea, Calif.). The concentration of therapeutic and/or prophylactic agent in the nanoparticle composition can be calculated based on the extinction coefficient of the therapeutic and/or prophylactic agent used in the composition and on the difference between the absorbance at a wavelength of, for example, 260 nm and the baseline value at a wavelength of, for example, 330 nm.

hEPO mRNA expression = assay: Expression of hEPO in rats after intravenous administration; type: in vivo; conditions: for hEPO (pg/mL) 3 hours / hEPO (pg/mL) 6 hours / hEPO (pg/mL) 24 hours: Table 6, 0.2 mg/kg or 0.5 mg/kg; for Lipid/MC3 hEPO S.D. (rats): hEPO expression relative to MC3, S.D. rats, intravenous
Protocol: PBS (phosphate buffered saline) is used as control.
Formulations were prepared according to Table 5 and included mRNA encoding hEPO.
[…] After the 48 hour time point, livers and spleens were harvested and frozen.

[5] = Lipid levels in liver and spleen 48 hours after administration; type: in vivo, rats; conditions: 48 hours after administration; for concentration at 48 h: Sprague-Dawley, rat, intravenous
Protocol: Formulations were administered intravenously to rats (n=3 or 6) at a dosage of 0.2 mg/kg or 0.5 mg/kg (mpk) and hEPO levels measured at 3, 6, and 24 hour time points. After the 48 hour time point, livers and spleens were harvested and frozen.
The amount of lipid in the liver and spleen 48 hours after administration of a nanoparticle composition was also measured. […] In contrast, approximately 60% of doses including MC3 or Compound 22 remained in the liver after 48 hours. Less than 3% of the dose remained in the spleen for each composition tested.

LDL-c = assay: LDL levels in LDLr−/− mice after mRNA encoding the LDL receptor; type: in vivo, LDLR knockout mice; conditions: Mus musculus; Table 7b; LDLr−/− mice, 0.5 mpk, LDLr; read-out: LDL levels lipid/untreated LDLr−/− mice 0.5 mpk, LDLr
[6] = Tolerability / toxicity in rats (hEPO study); type: in vivo; conditions: FIG. 8, i.v., 2 mg/kg dose
[7] = test system: luciferase (Luc) mRNA expression; assay: Expression of Luc induced by sample formulations, whole-body bioluminescence after intravenous administration; type: in vivo; conditions: for Total Flux 3 hours / Total Flux 6 hours / Total Flux 24 hours: Table 2, mice, i.v., 0.5 mg/kg
Summary of the method: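 Read-out is whole-body bioluminescence at 3, 6 and 24 h after a single intravenous dose of 0.5 mg/kg Luc mRNA in nanoparticle formulations. Groups of n=6 mice; PBS and standard MC3 formulation as references.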

[8] = test system: modified luciferase expression; assay: Expression of Luc in different organs (liver, lung, spleen, femur) 6 hours after intravenous administration; type: in vivo; conditions: i.v., 0.5 mpk
Protocol: The efficacy of the nanoparticle compositions presented in Tables 1, 1a, 17-1, 19-1, 20-1 and 21-1 was further evaluated by measuring the expression of modified luciferase in the liver, lung, spleen, and femur upon administration of a given composition. Formulations were administered intravenously to mice (n=3) at a dosage of 0.5 mpk and bioluminescence measured after 6 hours. The standard MC3 formulation and a PBS control were also tested.

IL-6 = assay: Cytokine production induced by sample formulations: IL-6; type: in vivo; conditions: Table 4; mice, i.v., 0.5 mpk, 6 hours; in pg/mL (unit assumed)
Summary of the method: (§1)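 Cytokine levels were quantified at 6 hours in mice given the nanoparticle compositions i.v. at 0.5 mpk. MC3 standard formulation and PBS served as comparators.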

IP-10 = assay: Cytokine production induced by sample formulations: IP-10; type: in vivo; conditions: Table 4; mice, i.v., 0.5 mpk, 6 hours; in pg/mL (unit assumed)
Summary of the method: as §1

[9] = Table 1, # formulated with hEPO mRNA
[10] = Table 5, hEPO mRNA, 40:20:38.5:1.5 Lipid:DOPE:Chol:PEG-DMG
[11] = liver, read-out: Lipid in liver
[12] = spleen, read-out: Lipid in spleen
[13] = Table 1, rows without footnote mark
[14] = Table 1, rows without footnote mark (lipid:DOPE:cholesterol:PEG-DMG 40:20:38.5:1.5, Luc mRNA; MC3 standard formulation)

## CCCCCCCCCCCCN(CCCCCCCCCCCC)CCN(CCCCCCCCCCCC)CCN1CCN(CCN(CCCCCCCC)CCCCCCCC)CC1 [Compound 22, N^1-(2-(4-(2-(Dioctylamino)ethyl)piperazin-1-yl)ethyl)-N^1,N^2,N^2-tridodecylethane-1,2-diamine]
[1]; [9]
  PDI: 0.130
  Size (nm): 75.4 nm
[1]; [10]
  PDI: 0.13
  Size (nm): 75.4 nm
[2]; [9]
  EE (%): 98.3%
[2]; [10]
  EE (%): 98.29%
[3]; [9]
  pKa: 6.15
[3]; [10]
  pKa: 6.153
[4]
  Conc.: 564.97 µg/mL
hEPO mRNA expression; rats, i.v.
  hEPO (pg/mL) 3 hours: 181627 pg/mL
  hEPO (pg/mL) 6 hours: 267680 pg/mL
  hEPO (pg/mL) 24 hours: 75571 pg/mL
hEPO mRNA expression
  Lipid/MC3 hEPO S.D. (rats): 0.20
[5]; [11]
  concentration at 48 h: 36800 ng/g
[5]; [12]
  concentration at 48 h: 3890 ng/g
[5]; liver
  % remaining dose in liver: 58.7%
  dose remaining in the liver after 48 hours: approximately 60%
[5]; spleen
  % remaining dose in spleen: 0.41%

## CCCCCCCCCCCCN(CCCCCCCCCCCC)CCN(CCCCCCCCCCCC)CCN1CCN(CCN(CCCCCCCCCCCC)CCCCCCCCCCCC)CC1 [KL22, N1-[2-(didodecylamino)ethyl]-N1,N4,N4-tridodecyl-1,4-piperazinediethanamine, reference compound]
hEPO mRNA expression; FIG. 8, rats, i.v., 2 mpk (Graph A)
  hEPO expression in rats (in words): do not express hEPO in rats
LDL-c
  response vs control in vivo at 0.5 mg/kg: 51%
[6]
  tolerability / toxicity in rats (in words): toxic

## CCCCCCCCCCCCN(CCCCCCCCCCCC)CCN(CCCCCCCCCCCC)CCN1CCN(CCN(CCCCCC(=O)OCCCCC)CCCCCC(=O)OCCCCC)CC1 [Compound 14, Dipentyl 6,6′-((2-(4-(2-((2-(didodecylamino)ethyl)(dodecyl)amino)ethyl)piperazin-1-yl)ethyl)azanediyl)dihexanoate]
[1]; [13]
  PDI: 0.008
[1]; [14]
  Size (nm): 88.7 nm
[1]; [10]
  PDI: 0.14
  Size (nm): 76.8 nm
[2]; [13]
  EE (%): 96.6%
[2]; [10]
  EE (%): 98.91%
[3]; [13]
  pKa: 6.31
[3]; [10]
  pKa: 6.308
[4]
  Conc.: 603.76 µg/mL
[7]
  Total Flux 3 hours: 9.86E+08
  Total Flux 6 hours: 1.56E+09
  Total Flux 24 hours: 1.02E+08
[7]; Table 7a
  Luc expression in mice compared with MC3 (in words): significantly lower
[8]; Table 3, mice
  Total Flux Liver: 2.62E+08
  Total Flux Lung: 3.56E+06
  Total Flux Spleen: 1.46E+07
IL-6
  IL-6: 17
IP-10
  IP-10: 209
hEPO mRNA expression; rats, i.v.
  hEPO (pg/mL) 3 hours: 280973 pg/mL
  hEPO (pg/mL) 6 hours: 158520 pg/mL
  hEPO (pg/mL) 24 hours: 58805 pg/mL
hEPO mRNA expression
  Lipid/MC3 hEPO S.D. (rats): 0.12
[5]; [11]
  concentration at 48 h: 3990 ng/g
[5]; [12]
  concentration at 48 h: 1620 ng/g
[5]; liver
  % remaining dose in liver: 5.54%
[5]; spleen
  % remaining dose in spleen: 0.15%

## CCCCCCCCCCCCN(CCCCCCCCCCCC)CCN(CCCCCCCCCCCC)CCN1CCN(CCN(CCCCCCCCCCCC(=O)OC)CCCCCCCCCCCC(=O)OC)CC1 [Compound 16, Dimethyl 12,12′-((2-(4-(2-((2-(didodecylamino)ethyl)(dodecyl)amino)ethyl)piperazin-1-yl)ethyl)azanediyl)didodecanoate]
[1]; [9]
  PDI: 0.140
  Size (nm): 77.4 nm
[1]; [10]
  PDI: 0.14
  Size (nm): 77.4 nm
[2]; [9]
  EE (%): 98.2%
[2]; [10]
  EE (%): 98.22%
[3]; [9]
  pKa: 6.28
[3]; [10]
  pKa: 6.282
[4]
  Conc.: 665.11 µg/mL
hEPO mRNA expression; rats, i.v.
  hEPO (pg/mL) 3 hours: 35387 pg/mL
  hEPO (pg/mL) 6 hours: 41720 pg/mL
  hEPO (pg/mL) 24 hours: 17184 pg/mL
hEPO mRNA expression
  Lipid/MC3 hEPO S.D. (rats): 0.031
hEPO mRNA expression; rats, i.v., 0.2 or 0.5 mg/kg, Tables 6, 7a
  hEPO expression in rats, comparison (in words): lowest hEPO expression at each time point
[5]; [11]
  concentration at 48 h: 597 ng/g
[5]; [12]
  concentration at 48 h: 293 ng/g
[5]; liver
  % remaining dose in liver: 0.79%
[5]; spleen
  % remaining dose in spleen: 0.026%

## CCCCCCCCCCCCCCN(CCCCCCCCCCCCCC)CCN1CCN(CCN(CCCCCCCCC)CCN(CCCCCCCCC)CCCCCCCCC)CC1 [Compound 20, N^1-(2-(4-(2-(Ditetradecylamino)ethyl)piperazin-1-yl)ethyl)-N^1,N^2,N^2-trinonylethane-1,2-diamine]
[1]; [13]
  PDI: 0.150
[1]; [14]
  Size (nm): 106.4 nm
[1]; [10]
  PDI: 0.14
  Size (nm): 114.5 nm
[2]; [13]
  EE (%): 84.2%
[2]; [10]
  EE (%): 94.39%
[3]; [13]
  pKa: 6.12
[4]
  Conc.: 1264.28 µg/mL
[7]
  Total Flux 3 hours: 1.00E+11
  Total Flux 6 hours: 1.11E+11
  Total Flux 24 hours: 4.60E+09
[8]; Table 3, mice, femur
  Total Flux Femur: 8.91E+06
[8]; Table 3, mice
  Total Flux Liver: 1.42E+10
  Total Flux Lung: 1.46E+08
  Total Flux Spleen: 6.11E+07
[8]; mice, each organ or overall
  total flux in organs, rank or organ comparison (in words): highest total flux
IL-6
  IL-6: 127
IP-10
  IP-10: 2080
hEPO mRNA expression; rats, i.v.
  hEPO (pg/mL) 6 hours: 227420 pg/mL

## CCCCCCCCCCCCN(CCCCCCCCCCCC)CCN(CCCCCCCCCCCC)CCN1CCN(CCN(CCCCCCCCCCCC)CCCCCCCCCCCC(=O)OC)CC1 [Compound 15, Methyl 12-((2-(4-(2-((2-(didodecylamino)ethyl)(dodecyl)amino)ethyl)piperazin-1-yl)ethyl)(dodecyl)amino)dodecanoate]
[1]; [9]
  PDI: 0.120
  Size (nm): 100.3 nm
[1]; [10]
  PDI: 0.12
  Size (nm): 100.3 nm
[2]; [9]
  EE (%): 90.2%
[2]; [10]
  EE (%): 90.15%
[3]; [9]
  pKa: 6.32
[3]; [10]
  pKa: 6.323
[4]
  Conc.: 713.00 µg/mL
hEPO mRNA expression; rats, i.v.
  hEPO (pg/mL) 3 hours: 103773 pg/mL
  hEPO (pg/mL) 6 hours: 125320 pg/mL
  hEPO (pg/mL) 24 hours: 67965 pg/mL
hEPO mRNA expression
  Lipid/MC3 hEPO S.D. (rats): 0.095
[5]; [11]
  concentration at 48 h: 3070 ng/g
[5]; [12]
  concentration at 48 h: 971 ng/g
[5]; liver
  % remaining dose in liver: 4.22%
[5]; spleen
  % remaining dose in spleen: 0.089%

— patent US10195156B2, “Compounds and compositions for intracellular delivery of agents” (ModernaTX, Inc., priority 2015, dated 2019)
